From PubChem BioAssay (NCI)
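Step 1: Grow cells in 96-well plates. Step 2: Expose to compound for 48 hours at 5 concentrations. Step 3: Interpolate endpoints linearly; if unreached, use highest concentration. Here, GI50 denotes the concentration required for 50% inhibition of growth. TGI: concentration producing complete growth inhibition.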

Tests used:
Assay in all cases: NCI-60 cell line screen, 48 h
SF-295 CNS = test system: SF-295 CNS
SNB-75 CNS = test system: SNB-75 CNS
IGROV1 ovarian = test system: IGROV1 ovarian
MOLT-4 leukemia = test system: MOLT-4 leukemia
HL-60(TB) leukemia = test system: HL-60(TB) leukemia
NCI-H522 lung = test system: NCI-H522 lung
U251 CNS = test system: U251 CNS
OVCAR-5 ovarian = test system: OVCAR-5 ovarian
SK-MEL-2 melanoma = test system: SK-MEL-2 melanoma
NCI-H23 lung = test system: NCI-H23 lung
HS 578T breast = test system: HS 578T breast
LOX IMVI melanoma = test system: LOX IMVI melanoma
K-562 leukemia = test system: K-562 leukemia
SK-OV-3 ovarian = test system: SK-OV-3 ovarian
COLO 205 colon = test system: COLO 205 colon
HT29 colon = test system: HT29 colon
NCI-H226 lung = test system: NCI-H226 lung
SR leukemia = test system: SR leukemia
OVCAR-8 ovarian = test system: OVCAR-8 ovarian
SK-MEL-5 melanoma = test system: SK-MEL-5 melanoma
MDA-N = test system: MDA-N
MALME-3M melanoma = test system: MALME-3M melanoma
PC-3 prostate = test system: PC-3 prostate
ACHN renal = test system: ACHN renal
A498 renal = test system: A498 renal
786-0 renal = test system: 786-0 renal
SN12C renal = test system: SN12C renal
CAKI-1 renal = test system: CAKI-1 renal
TK-10 renal = test system: TK-10 renal
MDA-MB-435 = test system: MDA-MB-435
DU-145 prostate = test system: DU-145 prostate
A549 NSCLC = test system: A549 NSCLC
SF-268 CNS = test system: SF-268 CNS
SW-620 colon = test system: SW-620 colon
RPMI-8226 leukemia = test system: RPMI-8226 leukemia
SK-MEL-28 melanoma = test system: SK-MEL-28 melanoma
KM12 colon = test system: KM12 colon
MCF7 breast = test system: MCF7 breast
MDA-MB-231 breast = test system: MDA-MB-231 breast
UACC-62 melanoma = test system: UACC-62 melanoma
OVCAR-4 ovarian = test system: OVCAR-4 ovarian
HOP-92 NSCLC = test system: HOP-92 NSCLC
RXF 393 renal = test system: RXF 393 renal
UACC-257 melanoma = test system: UACC-257 melanoma
CCRF-CEM leukemia = test system: CCRF-CEM leukemia
HCT-15 colon = test system: HCT-15 colon
HCT-116 colon = test system: HCT-116 colon
NCI/ADR-RES ovarian = test system: NCI/ADR-RES ovarian
UO-31 renal = test system: UO-31 renal
NCI-H460 lung = test system: NCI-H460 lung
EKVX NSCLC = test system: EKVX NSCLC
SF-539 CNS = test system: SF-539 CNS
M14 melanoma = test system: M14 melanoma
SNB-19 CNS = test system: SNB-19 CNS
OVCAR-3 ovarian = test system: OVCAR-3 ovarian
T-47D breast = test system: T-47D breast
HOP-62 NSCLC = test system: HOP-62 NSCLC
HCC-2998 colon = test system: HCC-2998 colon
BT-549 breast = test system: BT-549 breast

SMILES: CCCN(CCC)C(=S)N/N=C/c1cccc(C)n1
- TGI (SF-295 CNS): 7.53 µM
- TGI (SNB-75 CNS): 0.991 µM
- TGI (IGROV1 ovarian): 1560 nM
- TGI (MOLT-4 leukemia): 588 nM
- TGI (HL-60(TB) leukemia): 0.384 µM
- TGI (NCI-H522 lung): 2.51 µM
- TGI (U251 CNS): > 100 µM
- TGI (OVCAR-5 ovarian): 47.2 µM
- TGI (SK-MEL-2 melanoma): 26.4 µM
- TGI (NCI-H23 lung): > 100 µM
- TGI (HS 578T breast): > 100 µM
- TGI (LOX IMVI melanoma): 15.6 µM
- TGI (K-562 leukemia): 15 µM
- TGI (SK-OV-3 ovarian): 15.7 µM
- TGI (COLO 205 colon): 0.0435 µM
- TGI (HT29 colon): > 100 µM
- TGI (NCI-H226 lung): 0.837 µM
- TGI (SR leukemia): 376 nM
- TGI (OVCAR-8 ovarian): 0.729 µM
- TGI (SK-MEL-5 melanoma): 0.654 µM
- TGI (MDA-N): 22.6 µM
- TGI (MALME-3M melanoma): 14.9 µM
- TGI (PC-3 prostate): 62.9 µM
- TGI (ACHN renal): 0.821 µM
- TGI (A498 renal): 0.473 µM
- TGI (786-0 renal): 1.37 µM
- TGI (SN12C renal): 3.13 µM
- TGI (CAKI-1 renal): 4.65 µM
- TGI (TK-10 renal): 0.832 µM
- TGI (MDA-MB-435): 28.8 µM
- TGI (DU-145 prostate): > 100 µM
- TGI (A549 NSCLC): 10.3 µM
- TGI (SF-268 CNS): 15.1 µM
- TGI (SW-620 colon): > 100 µM
- TGI (RPMI-8226 leukemia): 546 nM
- TGI (SK-MEL-28 melanoma): 91.3 µM
- TGI (KM12 colon): 12.4 µM
- TGI (MCF7 breast): 0.67 µM
- TGI (MDA-MB-231 breast): 2.03 µM
- TGI (UACC-62 melanoma): 9.45 µM
- TGI (OVCAR-4 ovarian): 3.21 µM
- TGI (HOP-92 NSCLC): > 100 µM
- TGI (RXF 393 renal): 0.637 µM
- TGI (UACC-257 melanoma): 0.457 µM
- TGI (CCRF-CEM leukemia): 275 nM
- TGI (HCT-15 colon): 24.5 µM
- TGI (HCT-116 colon): 0.196 µM
- TGI (NCI/ADR-RES ovarian): 1.07 µM
- TGI (UO-31 renal): 12.2 µM
- TGI (NCI-H460 lung): 0.748 µM
- TGI (EKVX NSCLC): 8.34 µM
- TGI (SF-539 CNS): 0.545 µM
- TGI (M14 melanoma): 1.01 µM
- TGI (SNB-19 CNS): > 100 µM

SMILES: COc1cc(N)ccc1Nc1c2ccccc2nc2ccccc12
- GI50 (SF-295 CNS): 12 µM
- TGI (SF-295 CNS): 30.1 µM
- GI50 (OVCAR-3 ovarian): 12.2 µM
- TGI (OVCAR-3 ovarian): 25.4 µM
- GI50 (SNB-75 CNS): 10.8 µM
- TGI (SNB-75 CNS): 31.2 µM
- GI50 (IGROV1 ovarian): 10.2 µM
- TGI (IGROV1 ovarian): > 59400 nM
- GI50 (MOLT-4 leukemia): 2210 nM
- TGI (MOLT-4 leukemia): > 28500 nM
- GI50 (HL-60(TB) leukemia): 5.49 µM
- TGI (HL-60(TB) leukemia): 18.5 µM
- GI50 (NCI-H522 lung): 17.9 µM
- TGI (NCI-H522 lung): 51.3 µM
- GI50 (U251 CNS): 4.39 µM
- TGI (U251 CNS): 11.5 µM
- GI50 (OVCAR-5 ovarian): 15 µM
- TGI (OVCAR-5 ovarian): 29.9 µM
- GI50 (T-47D breast): 15.5 µM
- TGI (T-47D breast): 47.8 µM
- GI50 (SK-MEL-2 melanoma): 23.3 µM
- TGI (SK-MEL-2 melanoma): 44.9 µM
- GI50 (NCI-H23 lung): 15 µM
- TGI (NCI-H23 lung): 45.2 µM
- GI50 (HS 578T breast): 14.3 µM
- TGI (HS 578T breast): 44.3 µM
- GI50 (LOX IMVI melanoma): 5.27 µM
- TGI (LOX IMVI melanoma): 35.4 µM
- GI50 (HOP-62 NSCLC): 9.98 µM
- TGI (HOP-62 NSCLC): 27.9 µM
- GI50 (K-562 leukemia): 3.45 µM
- TGI (K-562 leukemia): > 28.8 µM
- GI50 (SK-OV-3 ovarian): 12.5 µM
- TGI (SK-OV-3 ovarian): 29.4 µM
- GI50 (COLO 205 colon): 5.55 µM
- TGI (COLO 205 colon): 18.4 µM
- GI50 (HT29 colon): 3.29 µM
- TGI (HT29 colon): 11 µM
- GI50 (NCI-H226 lung): 2350 nM
- TGI (NCI-H226 lung): 10.2 µM
- GI50 (SR leukemia): 2110 nM
- TGI (SR leukemia): > 32500 nM
- GI50 (OVCAR-8 ovarian): 10.2 µM
- TGI (OVCAR-8 ovarian): 36 µM
- GI50 (SK-MEL-5 melanoma): 7.52 µM
- TGI (SK-MEL-5 melanoma): 21.5 µM
- GI50 (MALME-3M melanoma): 14.6 µM
- TGI (MALME-3M melanoma): 35.1 µM
- GI50 (PC-3 prostate): 10.6 µM
- TGI (PC-3 prostate): 29.6 µM
- GI50 (ACHN renal): 3.36 µM
- TGI (ACHN renal): 14.3 µM
- GI50 (A498 renal): 6.28 µM
- TGI (A498 renal): 22.4 µM
- GI50 (786-0 renal): 12.7 µM
- TGI (786-0 renal): 27.2 µM
- GI50 (SN12C renal): 7.73 µM
- TGI (SN12C renal): 24.9 µM
- GI50 (CAKI-1 renal): 7.75 µM
- TGI (CAKI-1 renal): 25.1 µM
- GI50 (TK-10 renal): 14.6 µM
- TGI (TK-10 renal): 30.2 µM
- GI50 (MDA-MB-435): 17 µM
- TGI (MDA-MB-435): 33.2 µM
- GI50 (DU-145 prostate): 3.79 µM
- TGI (DU-145 prostate): 14.8 µM
- GI50 (HCC-2998 colon): 15.3 µM
- TGI (HCC-2998 colon): 30.3 µM
- GI50 (A549 NSCLC): 4.32 µM
- TGI (A549 NSCLC): 24.9 µM
- GI50 (SF-268 CNS): 14.2 µM
- TGI (SF-268 CNS): 35.3 µM
- GI50 (SW-620 colon): 3.55 µM
- TGI (SW-620 colon): 13.5 µM
- GI50 (RPMI-8226 leukemia): 5.27 µM
- TGI (RPMI-8226 leukemia): > 29900 nM
- GI50 (SK-MEL-28 melanoma): 16.3 µM
- TGI (SK-MEL-28 melanoma): 34.9 µM
- GI50 (KM12 colon): 7.56 µM
- TGI (KM12 colon): 20.5 µM
- GI50 (MCF7 breast): 2270 nM
- TGI (MCF7 breast): 13.5 µM
- GI50 (MDA-MB-231 breast): 13.1 µM
- TGI (MDA-MB-231 breast): 28.6 µM
- GI50 (UACC-62 melanoma): 12.9 µM
- TGI (UACC-62 melanoma): 31.2 µM
- GI50 (OVCAR-4 ovarian): 10.6 µM
- TGI (OVCAR-4 ovarian): > 45.6 µM
- GI50 (HOP-92 NSCLC): 4.59 µM
- TGI (HOP-92 NSCLC): 23 µM
- GI50 (RXF 393 renal): 11.5 µM
- TGI (RXF 393 renal): 27 µM
- GI50 (UACC-257 melanoma): 20.2 µM
- TGI (UACC-257 melanoma): 44 µM
- GI50 (CCRF-CEM leukemia): 3.73 µM
- TGI (CCRF-CEM leukemia): > 100000 nM
- GI50 (HCT-15 colon): 2860 nM
- TGI (HCT-15 colon): 12 µM
- GI50 (HCT-116 colon): 2510 nM
- TGI (HCT-116 colon): 7.63 µM
- GI50 (NCI/ADR-RES ovarian): 15.4 µM
- TGI (NCI/ADR-RES ovarian): 45.3 µM
- GI50 (UO-31 renal): 5.33 µM
- TGI (UO-31 renal): 22.8 µM
- GI50 (NCI-H460 lung): 1380 nM
- TGI (NCI-H460 lung): 7.72 µM
- GI50 (SF-539 CNS): 12.1 µM
- TGI (SF-539 CNS): 26.5 µM
- GI50 (BT-549 breast): 15.3 µM
- TGI (BT-549 breast): 32.4 µM
- GI50 (M14 melanoma): 16.5 µM
- TGI (M14 melanoma): 36.2 µM
- GI50 (SNB-19 CNS): 15.9 µM
- TGI (SNB-19 CNS): 38.1 µM
